Values quoted from earlier work as cited in patent US20020044913A1, “Cosmetics to support skin metabolism” (priority 2000, published 2002).
Like-named read-outs stand apart in the source and are kept apart here.

Experiments:
[1] = tested on: carnitine-acetyl-carnitine exchange across the inner mitochondrial membrane
[2] = daily supplements of up to 200 mg for 6-12 months and 100 mg daily for up to 6 y
apoptosis = settings: through its action in the mitochondria
[3] = tested on: senescent myocardium (human atrial tissue and rats)
aged rats = settings: supplementation
oxidant production = settings: carnitine supplementation
[4] = not given; remark: listed apart in the source
skeletal muscle = settings: older individuals (40-73), 20 g/day, one week

## C[N+](C)(C)C[C@H](O)CC(=O)[O-] [L-carnitine]
[1]
  age-associated decrease in mtDNA transcription: reverse
  age-related decrease in cardiolipin: reverse the age-related decrease in cardiolipin
  age-related decrease of carnitine-acetyl-carnitine exchange activity: slow or reverse this age-related dysfunction
  decreased membrane potential: reverse

## COC1=C(OC)C(=O)C(C/C=C(\C)CC/C=C(\C)CC/C=C(\C)CC/C=C(\C)CC/C=C(\C)CC/C=C(\C)CC/C=C(\C)CC/C=C(\C)CC/C=C(\C)CCC=C(C)C)=C(C)C1=O [Q10, Coenzyme Q10]
[2]
  adverse effects: No important adverse effects
apoptosis
  programmed cell death (apoptosis): appears to block programmed cell death
Older Finnish men, 100 mg/day
  benefit of supplementation: obtained benefit
Woman deficient in Q10, 150 mg/kg
  clinical improvement: rapidly improved
[3]; human atrial tissue and rats
  tolerance of senescent myocardium to aerobic and ischemic stress: improves the tolerance
[3]; older vs younger hearts
  recovery of function in older hearts: corrected the age-specific diminished recovery of function in older hearts

## O=C(O)CCCC[C@@H]1CCSS1 [R-α-lipoic acid]
Aged rats
  age-related decline in mitochondrial membrane potential: restore the age-related decline in mitochondrial membrane potential
  age-related decrease in oxygen consumption: reverse the age-related decrease in oxygen consumption
  age-related increase in oxidants: significantly lower
  glutathione and ascorbic acid levels: restore glutathione and ascorbic acid levels to youthful levels
Aged rats; aged rats
  ambulatory activity of aged rats: triple

## CC(=O)O[C@H](CC(=O)[O-])C[N+](C)(C)C [acetyl-L-carnitine]
[1]
  age-associated decrease in mtDNA transcription: reverse
  age-related decrease in cardiolipin: reverse the age-related decrease in cardiolipin
  age-related decrease of carnitine-acetyl-carnitine exchange activity: slow or reverse this age-related dysfunction
  decreased membrane potential: reverse

## C[N+](C)(C)CC(O)CC(=O)[O-] (stereo not shown) [carnitine]
Oxidant production
  cell antioxidants: decreased cell antioxidants markedly
  increase in oxidant production: 30%

## CN(CC(=O)O)C(=N)N [creatine]
[4]; 1.5 g-25 g/day for period of at least a year
  safety: safe
[4]; athletes, doses up to 75 grams a day for years
  adverse effects: without known adverse effects, aside from weight gain
Skeletal muscle
  skeletal muscle strength and endurance: Increased skeletal muscle strength and endurance

## COc1c(O)c(C)c(C/C=C(\C)CC/C=C(\C)CC/C=C(\C)CC/C=C(\C)CC/C=C(\C)CC/C=C(\C)CC/C=C(\C)CC/C=C(\C)CC/C=C(\C)CCC=C(C)C)c(O)c1OC [ubiquinol-10]
Human lymphocytes
  oxidative damage to DNA: appears to protect human lymphocytes from oxidative damage to DNA
